The values below come from the Kinase Knowledgebase extract (Sharma et al. 2016).

The target in the assay is ROCK2 (human) (UniProt O75116). Put plainly: Inhibition of ROCK2 Kinase Activity. Particulars: concentration not given here.

The term inhibition denotes the relative decrease from the control value, in per cent. The low end stands for little suppression, the high end for strong suppression.

Sequence of ROCK2 (human) (O75116 whole entry, looked up): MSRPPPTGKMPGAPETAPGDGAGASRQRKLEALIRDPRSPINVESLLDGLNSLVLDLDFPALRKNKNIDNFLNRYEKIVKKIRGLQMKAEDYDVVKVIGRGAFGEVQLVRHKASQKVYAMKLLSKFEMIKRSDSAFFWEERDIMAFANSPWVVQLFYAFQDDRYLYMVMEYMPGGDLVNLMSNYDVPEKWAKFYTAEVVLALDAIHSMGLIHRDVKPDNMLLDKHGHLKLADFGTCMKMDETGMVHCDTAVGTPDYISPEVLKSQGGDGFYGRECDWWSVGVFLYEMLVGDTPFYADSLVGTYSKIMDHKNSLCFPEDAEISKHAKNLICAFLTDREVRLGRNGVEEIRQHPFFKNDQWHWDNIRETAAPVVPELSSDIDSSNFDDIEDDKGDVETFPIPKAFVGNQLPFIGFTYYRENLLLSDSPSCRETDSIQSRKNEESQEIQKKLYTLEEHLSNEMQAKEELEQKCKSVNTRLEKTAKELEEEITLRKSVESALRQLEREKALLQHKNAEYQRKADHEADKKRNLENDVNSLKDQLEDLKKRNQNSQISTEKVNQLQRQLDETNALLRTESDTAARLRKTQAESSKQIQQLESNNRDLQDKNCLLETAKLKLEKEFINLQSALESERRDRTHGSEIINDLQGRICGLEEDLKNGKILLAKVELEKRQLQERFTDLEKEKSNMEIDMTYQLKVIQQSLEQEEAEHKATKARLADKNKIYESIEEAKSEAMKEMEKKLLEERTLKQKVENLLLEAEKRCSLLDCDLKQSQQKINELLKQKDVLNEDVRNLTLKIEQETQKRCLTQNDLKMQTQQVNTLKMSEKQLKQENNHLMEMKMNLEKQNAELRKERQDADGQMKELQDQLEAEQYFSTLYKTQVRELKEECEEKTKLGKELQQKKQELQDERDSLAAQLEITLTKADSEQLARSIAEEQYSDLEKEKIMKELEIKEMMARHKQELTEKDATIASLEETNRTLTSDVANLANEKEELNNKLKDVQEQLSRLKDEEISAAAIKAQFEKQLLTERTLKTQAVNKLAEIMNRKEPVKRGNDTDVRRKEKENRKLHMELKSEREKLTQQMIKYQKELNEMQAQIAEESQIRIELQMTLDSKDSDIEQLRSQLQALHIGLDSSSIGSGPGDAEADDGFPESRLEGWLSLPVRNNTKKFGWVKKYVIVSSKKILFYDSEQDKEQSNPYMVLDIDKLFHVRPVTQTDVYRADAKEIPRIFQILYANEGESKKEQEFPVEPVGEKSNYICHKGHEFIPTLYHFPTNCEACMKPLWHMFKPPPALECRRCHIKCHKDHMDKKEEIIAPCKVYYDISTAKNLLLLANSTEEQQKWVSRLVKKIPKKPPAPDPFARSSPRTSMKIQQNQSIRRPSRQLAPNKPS

`Cn1cnc2c(/C=C/c3ccccc3)ncnc21` came in with an inhibition of 0%.

The molecule `CSc1ccc(-c2nc3c(Sc4ccccc4)ncnc3n2C)cc1` displayed an inhibition of 0%.

`Cn1cnc2c(Nc3ccccc3)ncnc21` showed an inhibition of 0%.

Regarding `Nc1ncnc2c1ncn2Cc1ccc(F)cc1`, the inhibition worked out at 0%.

`CSc1ccc(-c2nc3c(Sc4ccc(F)cc4)ncnc3n2C)cc1`: the inhibition was 0%.

Molecule `Cn1c(Br)nc2c(Sc3ccccc3)ncnc21` had an inhibition of 0%.

`Fc1ccc(Cn2cnc3c(Sc4ccc(F)cc4)ncnc32)cc1` displayed an inhibition of 0%.

As to `Cn1c(-c2ccccc2)nc2c(-c3ccc(F)cc3)ncnc21`, the inhibition is 0%.

In turn, `c1ccc(-n2cnc3ncncc32)cc1` gave an inhibition of 0%.

The molecule `Cn1c(-c2ccc(S(C)(=O)=O)cc2)nc2c(Sc3ccc(F)cc3)ncnc21` returned an inhibition of 0%.

`Cn1c(-c2ccc([S+](C)[O-])cc2)nc2c(Sc3ccc(F)cc3)ncnc21` (centres undefined) gave an inhibition of 0%.

Molecule `Cn1c(C#CCCO)nc2c(Sc3ccccc3)ncnc21` gave an inhibition of 0%.

Turning to `Fc1ccc(Cn2cnc3c(Cl)ncnc32)cc1`, the inhibition was 0%.

`C(=C\c1ncnc2[nH]cnc12)/c1ccccc1` came in with an inhibition of 22%.
